Measured values published in patent US11001590B2, “Pyrazolopyrimidine derivatives” (BAYER ANIMAL HEALTH GMBH, priority 2016, dated 2021).

Tests used:
[1] = system: Dirofilaria immitis microfilariae; assay: In vitro assay 3: Dirofilaria immitis microfilariae (DIROIM L1), motility; conditions: 72 h, reduction of motility vs negative control, 72 h incubation
[2] = system: Litomosoides sigmodontis third-stage larvae; assay: In vitro assay 7: Litomosoides sigmodontis L3 (LTMOSI), motility; conditions: 72 h, reduction of motility vs negative control, 72 h incubation
[3] = target: C. elegans Slo-1a (Caenorhabditis elegans, UniProt Q95V25); assay: In vitro assay 1: C. elegans Slo-1a, action at a recombinant C. elegans CHO cell line (membrane potential measurement)
[4] = system: Dirofilaria immitis third-stage larvae; assay: In vitro assay 4: Dirofilaria immitis (DIROIM L4), motility of larvae; conditions: 72 h
[5] = log P by HPLC on reversed phase columns (Method L0; [a] acidic, [b] neutral range)
Method: Calibration was done with straight-chain alkan-2-ones (with 3 to 16 carbon atoms) with known log P values (measurement of log P values using retention times with linear interpolation between successive alkanones). Lambda-max-values were determined using UV-spectra from 200 nm to 400 nm and the peak values of the chromatographic signals.

C. elegans Slo-1a, sequence (Q95V25 whole entry): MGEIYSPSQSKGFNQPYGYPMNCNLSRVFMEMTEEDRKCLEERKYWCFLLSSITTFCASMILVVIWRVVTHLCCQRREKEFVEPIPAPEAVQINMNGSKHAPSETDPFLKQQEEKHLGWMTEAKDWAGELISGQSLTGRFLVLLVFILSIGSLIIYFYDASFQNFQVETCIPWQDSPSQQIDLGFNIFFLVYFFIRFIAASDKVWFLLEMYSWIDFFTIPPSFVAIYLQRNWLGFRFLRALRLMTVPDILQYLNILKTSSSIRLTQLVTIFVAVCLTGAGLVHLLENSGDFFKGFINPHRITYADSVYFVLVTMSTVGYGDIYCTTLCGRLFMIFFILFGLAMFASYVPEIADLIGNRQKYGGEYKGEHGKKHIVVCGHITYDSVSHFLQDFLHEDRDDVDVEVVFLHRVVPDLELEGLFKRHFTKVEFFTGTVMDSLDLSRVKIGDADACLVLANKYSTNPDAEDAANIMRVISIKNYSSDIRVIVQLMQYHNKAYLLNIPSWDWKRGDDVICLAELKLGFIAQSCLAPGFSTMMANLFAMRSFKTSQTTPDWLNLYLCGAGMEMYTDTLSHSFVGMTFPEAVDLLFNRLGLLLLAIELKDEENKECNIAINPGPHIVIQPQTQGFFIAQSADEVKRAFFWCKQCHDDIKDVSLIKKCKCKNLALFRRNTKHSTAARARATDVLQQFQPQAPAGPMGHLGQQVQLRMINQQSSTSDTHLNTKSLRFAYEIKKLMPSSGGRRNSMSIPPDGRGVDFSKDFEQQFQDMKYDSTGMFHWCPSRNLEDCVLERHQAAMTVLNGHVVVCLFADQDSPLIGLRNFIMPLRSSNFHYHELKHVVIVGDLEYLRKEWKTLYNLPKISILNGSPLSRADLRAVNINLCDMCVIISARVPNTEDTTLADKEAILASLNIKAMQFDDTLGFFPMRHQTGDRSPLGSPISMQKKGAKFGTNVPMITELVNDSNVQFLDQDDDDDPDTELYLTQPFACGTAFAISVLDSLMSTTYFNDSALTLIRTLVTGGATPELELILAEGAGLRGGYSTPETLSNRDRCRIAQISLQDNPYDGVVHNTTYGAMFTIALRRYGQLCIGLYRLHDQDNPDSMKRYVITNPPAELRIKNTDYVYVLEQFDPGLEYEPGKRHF

| SMILES | EC50 [1] [µg/mL] | EC50 [2] [µg/mL] | EC50 [3] [nM] | EC50 [4] [µg/mL] | chromatographic logP [5] |
| --- | --- | --- | --- | --- | --- |
| Cc1nn2c(C(C)C)c(C(=O)N[C@H]3CCCc4ccccc43)cnc2c1-c1cccc(Cl)c1 [Example 45] | < 0.1 | < 0.1 | 50.1 | < 1 | 5.51 |
| CC(C)c1c(C(=O)N[C@H]2CCc3ccccc32)cnc2c(-c3ccccc3Cl)c(Cl)nn12 [Example 79] | < 0.1 | < 0.1 | 20 | < 0.1 | 4.79 |
| Cc1nn2c(C(C)C)c(C(=O)N[C@H]3CCOc4ccccc43)cnc2c1-c1ccccc1F [Example 92] | < 0.1 | < 0.1 | 6.31 | < 0.1 | 4.18 |
| Cc1nn2c(C(C)C)c(C(=O)N[C@H]3CCc4ccccc43)cnc2c1-c1ccccc1F [Example 95] | < 0.1 | < 0.1 | 6.31 | < 0.1 | 4.41 |
| Cc1nn2c(C(C)C)c(C(=O)N[C@H]3CCCc4ccccc43)cnc2c1-c1c(F)cccc1F [Example 98] | < 0.1 | < 0.1 | 12.6 | < 0.1 | 4.67 |
| Cc1nn2c(C(C)C)c(C(=O)N[C@H]3CCc4ccccc43)cnc2c1-c1c(F)cccc1F [Example 99] | < 0.1 | < 0.1 | 10 | < 0.1 | 4.37 |
| Cc1nn2c(C(C)C)c(C(=O)N[C@H]3CCOc4ccccc43)cnc2c1-c1ccc(F)c(F)c1 [Example 100] | < 0.1 | < 0.1 | 7.94 | < 0.1 | 4.56 |
| Cc1nn2c(C(C)C)c(C(=O)N[C@H]3CCc4ccccc43)cnc2c1-c1ccc(F)c(F)c1 [Example 103] | < 0.1 | < 0.1 | 20 | < 0.1 | 4.82 |
| Cc1nn2c(C(C)C)c(C(=O)N[C@H]3CCOc4ccccc43)cnc2c1-c1ccccc1Cl [Example 107] | < 0.1 | < 0.1 | 5.01 | < 0.1 | 4.37 |
| Cc1nn2c(C(C)C)c(C(=O)N[C@H]3CCc4ccccc43)cnc2c1-c1cc(F)ccc1F [Example 116] | < 0.1 | < 0.1 | 10 | < 0.1 | 4.59 |
| Cc1nn2c(C(C)C)c(C(=O)N[C@H]3CCOc4ccccc43)cnc2c1-c1cccc(Cl)c1 [Example 117] | < 0.1 | < 0.1 | 5.01 | < 0.1 | 4.87 |
| Cc1nn2c(C(C)C)c(C(=O)N[C@H]3CCOc4ccccc43)cnc2c1-c1cc(F)ccc1F [Example 121] | < 0.1 | < 0.1 | 6.31 | < 0.1 | 4.41 |
| Cc1nn2c(C(C)C)c(C(=O)N[C@H]3CCCc4ccccc43)cnc2c1-c1c(F)cccc1Cl [Example 131] | < 0.1 | < 0.1 | 7.94 | < 0.1 | 5.02 |
| Cc1nn2c(C(C)C)c(C(=O)N[C@H]3CCc4ccccc43)cnc2c1-c1c(F)cccc1Cl [Example 132] | < 0.1 | < 0.1 | 6.31 | < 0.1 | 4.71 |
| Cc1nn2c(C(C)C)c(C(=O)N[C@H]3CCCc4ccccc43)cnc2c1-c1cccc(F)c1F [Example 134] | < 0.1 | < 0.1 | 12.6 | < 0.1 | 4.9 |
| Cc1nn2c(C(C)C)c(C(=O)N[C@H]3CCc4ccccc43)cnc2c1-c1cccc2c1OC(F)(F)O2 [Example 147] | < 0.1 | < 0.1 | 50.1 | < 0.1 | 5.17 |
| Cc1nn2c(C(C)C)c(C(=O)N[C@H]3CCOc4ccccc43)cnc2c1-c1cccc(C(F)F)c1 [Example 153] | < 0.1 | < 0.1 | 126 | < 0.1 | 4.41 |
| Cc1nn2c(C(C)C)c(C(=O)N[C@H]3CCOc4ccccc43)cnc2c1-c1c(Cl)cccc1Cl [Example 154] | < 0.1 | < 0.1 | 6.31 | < 0.1 | 4.56 |
| Cc1nn2c(C(C)C)c(C(=O)N[C@H]3CCc4ccccc43)cnc2c1-c1cccc(Cl)c1Cl [Example 168] | < 0.1 | < 0.1 | 3.16 | < 0.1 | 5.13 |
| Cc1nn2c(C(C)C)c(C(=O)N[C@H]3CCCc4ccccc43)cnc2c1-c1cccc(Cl)c1Cl [Example 169] | < 0.1 | < 0.1 | 6.31 | < 0.1 | 5.46 |

| SMILES | EC50 [1] [µg/mL] | EC50 [2] [µg/mL] | EC50 [3] [nM] | EC50 [4] [µg/mL] | chromatographic logP [5] |
| --- | --- | --- | --- | --- | --- |
| Cc1nn2c(C(C)C)c(C(=O)N[C@H]3CCc4ccccc43)cnc2c1-c1cc(Cl)ccc1Cl [Example 171] | < 0.1 | < 0.1 | 5.01 | < 0.1 | 5.31 |
| Cc1nn2c(C(C)C)c(C(=O)N[C@H]3CCOc4ccccc43)cnc2c1-c1cc(Cl)ccc1Cl [Example 173] | < 0.1 | < 0.1 | 3.98 | < 0.1 | 5 |
| Cc1nn2c(C(C)C)c(C(=O)N[C@H]3CCOc4ccccc43)cnc2c1-c1cccc(F)c1Cl [Example 191] | < 0.1 | < 0.1 | 1.26 | < 0.1 | 4.46 |
| Cc1ccccc1-c1c(C)nn2c(C(C)C)c(C(=O)N[C@H]3CCOc4ccccc43)cnc12 [Example 193] | < 0.1 | < 0.1 | 0.794 | < 0.1 | 4.44 |
| CCC(C)c1c(C(=O)N[C@H]2CCOc3ccccc32)cnc2c(-c3c(F)cccc3Cl)c(C)nn12 (stereo partly shown) [Example 226] | < 0.1 | < 0.1 | 20 | < 0.1 | 4.72 |
| Cc1nn2c(C(C)C)c(C(=O)N[C@H]3CCc4ccccc43)cnc2c1-c1cccc(F)c1 [Example 290, (S)—N-(2,3-Dihydro-1H-inden-1-yl)-3-(3-fluorophenyl)-7-isopropyl-2-methylpyrazolo[1,5-a]pyrimidine-6-carboxamide] | < 1 | < 1 | 15.8 |  | 4.73 |
| COCc1cccc(-c2c(C)nn3c(C(C)C)c(C(=O)N[C@H]4CCc5ccccc54)cnc23)c1 [Example 300] | < 1 | < 0.1 | 6.31 | < 0.1 | 4.43 |
| Cc1nn2c(C(C)C)c(C(=O)N[C@H]3CCc4ccccc43)cnc2c1-c1ccc(F)cc1 [Example 302] | < 0.1 | < 0.1 | 12.6 | < 0.1 | 4.63 |
| Cc1nn2c(C(C)C)c(C(=O)N[C@H]3CCc4ccccc43)cnc2c1-c1cc(F)cc(F)c1 [Example 323] | < 0.1 | < 0.1 | 39.8 | < 1 | 5.02 |
| Cc1nn2c(C(C)C)c(C(=O)N[C@H]3CCc4ccccc43)cnc2c1-c1cc(F)cc(Cl)c1 [Example 324] | < 0.1 | < 0.1 | 31.6 | < 0.1 | 5.49 |
| COc1cc(F)cc(-c2c(C)nn3c(C(C)C)c(C(=O)N[C@H]4CCc5ccccc54)cnc23)c1 [Example 325] | < 0.1 | < 0.1 | 20 | < 0.1 | 4.8 |
| Cc1nn2c(C(C)C)c(C(=O)N[C@H]3CCc4ccccc43)cnc2c1-c1cccc(OC(F)F)c1 [Example 337] | < 0.1 | < 0.1 | 12.6 | < 1 | 4.7 |
| Cc1nn2c(C3CC3)c(C(=O)N[C@H]3CCc4ccccc43)cnc2c1-c1ccccc1Cl [Example 349] | < 0.1 | < 0.1 | 2.51 | < 0.1 | 3.88 |
| COc1cccc(-c2c(C)nn3c(C4CC4)c(C(=O)N[C@H]4CCc5ccccc54)cnc23)c1 [Example 351] | < 0.1 | < 0.1 | 3.98 | < 0.1 | 3.74 |
| Cc1nn2c(C3CC3)c(C(=O)N[C@H]3CCc4ccccc43)cnc2c1-c1cccc(Cl)c1 [Example 352] | < 0.1 | < 0.1 | 6.31 | < 0.1 | 4.38 |
| Cc1nn2c(C3CC3)c(C(=O)N[C@H]3CCc4ccccc43)cnc2c1-c1cccc(F)c1 [Example 353] | < 0.1 | < 0.1 | 7.94 | < 1 | 3.95 |
| Cc1nn2c(C3CC3)c(C(=O)N[C@H]3CCc4ccccc43)cnc2c1-c1ccccc1F [Example 357] | < 0.1 | < 0.1 | 6.31 | < 0.1 | 3.67 |
| COc1cccc(-c2c(C)nn3c(C(C)C)c(C(=O)N[C@H]4CCOc5ccccc54)cnc23)c1 [Example 395] | < 0.1 | < 0.1 | 7.94 | < 0.1 | 4.24 |
| Cc1nn2c(C(C)C)c(C(=O)N[C@H]3CCOc4ccccc43)cnc2c1-c1cccc(F)c1 [Example 396] | < 0.1 | < 0.1 | 15.8 | < 0.1 | 4.45 |
| Cc1nn2c(C(C)C)c(C(=O)N[C@H]3CCOc4ccccc43)cnc2c1-c1cncc(Cl)c1 [Example 402] | < 0.1 | < 0.1 | 20 | < 0.1 | 3.91 |
